In PubChem BioAssay (NCI) one finds TGI and GI50 data, which are given here for 11 compounds.

Among the test systems are LOX IMVI melanoma; NCI-H522 lung; M14 melanoma; NCI-H226 lung; SN12C renal; SNB-19 CNS; HCT-116 colon; U251 CNS; HOP-92 NSCLC; T-47D breast.
Holding throughout (test): inhibition of tumour cell growth, NCI panel, 48 h

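Compound exposure: 48 hours, 5 concentrations, 96-well plates. At the GI50, growth is halved. The concentration for full growth arrest is given as TGI.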

As for `CC1=NOC(=O)/C1=C/c1cccc2ccccc12`, the TGI with LOX IMVI melanoma, with NCI-H522 lung, in the assay on M14 melanoma, in the assay with NCI-H226 lung, in the assay on SN12C renal and in the assay with SNB-19 CNS was over 100 µM throughout. The TGI in the assay on HCT-116 colon, in the assay with U251 CNS and in the assay with HOP-92 NSCLC was over 100 µM in each case.

On to `O=C(O)C[C@H]1CCCCC12CCOC2=O` (stereo not given in full), for which the TGI in the assay with LOX IMVI melanoma, with NCI-H522 lung, in the assay on M14 melanoma, in the assay on NCI-H226 lung, in the assay with SN12C renal and with SNB-19 CNS was over 100 µM each time. Moreover, the TGI in the assay on HCT-116 colon, with U251 CNS and in the assay on HOP-92 NSCLC was over 100 µM throughout.

For the compound `Clc1cccc(Cl)c1C1CSc2ccccc2N=C1c1ccccc1` (stereo not given), the GI50 in the assay on LOX IMVI melanoma is 1.75 µM; in the assay on NCI-H522 lung it was 3.52 µM; in the assay with M14 melanoma it was 8.44 µM; with NCI-H226 lung, 20.5 µM; with SN12C renal, 3.35 µM; in the assay on SNB-19 CNS, 11.5 µM. Further, the GI50 with HCT-116 colon is 1.71 µM; in the assay with T-47D breast, 8.39 µM; in the assay with U251 CNS it was 2.11 µM. Moreover, the TGI in the assay with LOX IMVI melanoma worked out at 4.03 µM; in the assay on NCI-H522 lung, 14.5 µM; with M14 melanoma it was 23.1 µM; with NCI-H226 lung, 74.2 µM; with SN12C renal, 12.3 µM; in the assay with SNB-19 CNS, 24.6 µM. Besides, the TGI was 3.32 µM in the assay with HCT-116 colon, 34.5 µM in the assay with T-47D breast and 4.54 µM with U251 CNS.

Consider `COC(=O)C(Cc1cc(OC)c(OC)c(OC)c1)c1ccc(OC)cc1` (stereo not given), for which the TGI with LOX IMVI melanoma, with NCI-H522 lung, with M14 melanoma, in the assay on NCI-H226 lung, in the assay with SN12C renal and in the assay with SNB-19 CNS was over 100 µM each time. In addition, the TGI in the assay with HCT-116 colon, with U251 CNS and with HOP-92 NSCLC was over 100 µM in each case.

In the case of `CC1(C)C(O)C[C@@H](O)[C@@]2(C)C1CC[C@]1(C)C2C[C@@H](O)[C@@H]2C([C@@]3(C)CC[C@@H](C(C)(C)O)O3)CCC21C` (stereo not given in full), the TGI came to 23.2 µM in the assay with LOX IMVI melanoma; 27.8 µM with NCI-H522 lung; 27.7 µM in the assay with M14 melanoma; 34.7 µM in the assay with NCI-H226 lung; 26.9 µM with SN12C renal; 30.4 µM with SNB-19 CNS. The figures for the TGI with HCT-116 colon, in the assay with U251 CNS and in the assay on HOP-92 NSCLC were 30.9 µM, 25.5 µM and 23.5 µM, respectively.

Turning to `CCCCCCCCCCCCCC(=O)OCC1OC(n2cc(F)c(=O)[nH]c2=O)C(NC(=O)OCc2ccccc2)C(OC(=O)CCCCCCCCCCCCC)C1O` (stereo not given), the TGI with LOX IMVI melanoma, in the assay with NCI-H522 lung, in the assay with M14 melanoma, in the assay with NCI-H226 lung, in the assay with SN12C renal and in the assay on SNB-19 CNS was over 100 µM in each case. Besides, the TGI in the assay on HCT-116 colon, with U251 CNS and with HOP-92 NSCLC was over 100 µM each time.

Consider `COC(=O)/C=C(\C(=O)OC)c1c2c3c(cc(OC)c(OC)c3c3ccccc13)CCN2C`, for which the TGI in the assay with LOX IMVI melanoma was over 100 µM; in the assay on NCI-H522 lung it was 74 µM; in the assay with M14 melanoma it was over 100 µM; in the assay on NCI-H226 lung, over 100 µM; in the assay on SN12C renal, over 100 µM; with SNB-19 CNS, over 100 µM. For the same compound, the TGI in the assay on HCT-116 colon, in the assay on U251 CNS and with HOP-92 NSCLC was over 100 µM in each case.

`COc1ccc2c(CN3CCC(C(=O)O)CC3)cc3cc4c(cc3c2c1)OCO4`: the GI50 in the assay with LOX IMVI melanoma was 1.9 µM; in the assay on M14 melanoma, 2.11 µM; with NCI-H226 lung, 2.03 µM; in the assay on SN12C renal it was 1.27 µM; in the assay on SNB-19 CNS, 3.35 µM; with HCT-116 colon, 1.4 µM. Further, the values for the GI50 with T-47D breast, in the assay with U251 CNS and in the assay with HOP-92 NSCLC were 3.62 µM, 2.74 µM and 1.62 µM, respectively. Moreover, the TGI stood at 9.37 µM with LOX IMVI melanoma; 4.94 µM in the assay with M14 melanoma; 4.64 µM in the assay on NCI-H226 lung; 4.08 µM in the assay on SN12C renal; 22.6 µM in the assay with SNB-19 CNS; 8.78 µM in the assay on HCT-116 colon. Further, the TGI was 17.7 µM with T-47D breast, over 100 µM with U251 CNS and 5.34 µM in the assay on HOP-92 NSCLC.

For `COc1ccc(C2CC(c3cc(C)ccc3O)=NC(N)=N2)cc1` (stereo not given), the TGI in the assay with LOX IMVI melanoma, in the assay on NCI-H522 lung, in the assay with M14 melanoma, with NCI-H226 lung, with SN12C renal and in the assay on SNB-19 CNS was over 100 µM throughout. The TGI with HCT-116 colon, in the assay with U251 CNS and with HOP-92 NSCLC was over 100 µM throughout.

Regarding `CCCCCCCCN(CCCCCCCC)CCCCCCNc1cc(OC)cc2cccnc12`, the GI50 in the assay on LOX IMVI melanoma was 3.79 µM; with NCI-H522 lung, 1.9 µM; in the assay on M14 melanoma, 3.33 µM; with NCI-H226 lung, 17 µM; with SN12C renal it was 2.58 µM; in the assay with SNB-19 CNS, 10.5 µM. The results for the GI50 in the assay on HCT-116 colon, in the assay on T-47D breast and in the assay with U251 CNS were 2.37 µM, 12.1 µM and 11.9 µM, respectively. Besides, the TGI is 13.5 µM with LOX IMVI melanoma; 4.78 µM in the assay with NCI-H522 lung; 12.4 µM with M14 melanoma; 33.7 µM in the assay on NCI-H226 lung; 6.9 µM in the assay with SN12C renal; 24.2 µM in the assay with SNB-19 CNS. Further, the TGI turned out to be 6.49 µM in the assay on HCT-116 colon, 27.5 µM with T-47D breast and 27 µM in the assay with U251 CNS.

For `COc1ccc2c(c1)[n+](=O)c(C(=O)c1ccco1)c(C(F)(F)F)n2[O-]`, the GI50 is 1.19 µM with LOX IMVI melanoma; 35.6 µM with NCI-H522 lung; 2 µM in the assay on M14 melanoma; 3.04 µM in the assay with NCI-H226 lung; 3.01 µM in the assay with SN12C renal; 4.25 µM with SNB-19 CNS. The GI50 in the assay with HCT-116 colon was 0.851 µM; in the assay on U251 CNS, 2.04 µM; with HOP-92 NSCLC, 1.83 µM. For the same compound, the TGI in the assay on LOX IMVI melanoma was 3.59 µM; in the assay on NCI-H522 lung it was over 100 µM; in the assay on M14 melanoma, 6.72 µM; in the assay with NCI-H226 lung, 17.6 µM; in the assay on SN12C renal, 11.8 µM; in the assay on SNB-19 CNS, 45.5 µM. In addition, the results for the TGI with HCT-116 colon, in the assay with U251 CNS and in the assay on HOP-92 NSCLC were 15.1 µM, 8.67 µM and 19.5 µM, respectively.
